How the values were obtained:
[1] = tested on: Sca1+ c-Kit+ lineage negative cells (multipotent hematopoietic stem cells); conditions: mice, 30 mg/kg or 100 mg/kg daily gavage, 70 days, either dose
Procedure: (§1) The study consisted of 3 groups of BALB/cByJ mice (10 mice per group). Mice received daily gavage treatments of either 30 mg/kg, 100 mg/kg of dexpramipexole or vehicle control for 70 days. Bone marrow was processed into single cell suspensions and cells were stained with fluorescent conjugate antibodies to analyze the developmental stages of cells by flow cytometry. […] The columns depict the mean for each group and the error bar indicates the standard error of the mean. The asterisks denote statistical significance between treatment groups and the vehicle control group by one-way ANOVA (* p≦0.05, ** p≦0.01).

[2] = tested on: Siglec-F lo IL5Rα hi positive cells (developing B cells, basophils and other cell populations); conditions: mice, 30 mg/kg or 100 mg/kg daily gavage, 70 days, either dose
Procedure: as §1

eosinophils [3] = format: in vivo; conditions: minipigs, 7.5, 25, 75/50 mg/kg daily oral gavage, 39 weeks
Procedure: In a 39-week repeat-dose toxicology study, minipigs were dosed at 0, 7.5, 25, and 75 mg/kg dexpramipexole by daily oral gavage through Study Day 45 and at 0, 7.5, 25, and 50 mg/kg dexpramipexole from Study Day 46 to study completion.

eosinophils [4] = tested on: eosinophils
Procedure: (§2) In FIG. 2A the time period marked “W” represents the end of the 4-week washout following the month 3 time point.
The phase 3 clinical trial was a double-blind study of dexpramipexole in ALS patients randomized 1:1 to placebo or dexpramipexole 300 mg daily treatment. Hematology parameters were collected as part of routine safety monitoring. Eosinophil and basophil counts were retrospectively analyzed by visit.
Eosinophil levels were summarized over available time points and analyzed by ANOVA testing the effect of treatment vs. placebo on mean changes in serum eosinophil counts from baseline. Subjects with baseline eosinophils from 0 to 0.02×10^9/L (constituting less than 2% of all subjects analyzed) were censored from the primary analysis because of the inherent limitation to observe a decline from baseline.
Statistical analysis of the change from baseline was performed at month 6 to remove the effect of study dropouts in later months.

eosinophils [5] = tested on: eosinophils; remark: listed apart in the source
Procedure: as §2
The Phase 2 trial was a two-part, double-blind study that evaluated the safety, tolerability, and clinical effects of dexpramipexole in ALS patients.
In Part 1, subjects were randomized to placebo (n=27), 50 mg/day (n=23), 150 mg/day (n=26), or 300 mg/day dexpramipexole (n=26) for 12 weeks.

[6] = tested on: myeloid and lymphoid cell types, red blood cells, platelets; conditions: Phase 3, 300 mg daily, month 6
Procedure: Hematological parameters were measured in a Phase 3 study of dexpramipexole in ALS. Because of the high rate of mortality among ALS patients, including subjects in the Phase 3 trial, hematology parameters obtained at the month 6 visit were chosen for analysis to remove the effect of study dropouts in later months.

## CCCN[C@@H]1CCc2nc(N)sc2C1 [dexpramipexole, (6R)-2-amino-4,5,6,7-tetrahydro-6-(propylamino) benzothiazole]
[1]
  number of Sca1+ c-Kit+ lineage negative cells in bone marrow vs vehicle control: lowered
[2]
  Siglec-F lo IL5Rα hi positive cells in bone marrow vs vehicle control: lowered
Eosinophils [3]
  effect on eosinophils: dose- and time-dependent reduction in eosinophils
Eosinophils [4]; Phase 3, after 8-12 weeks of treatment, persisted for the duration of the trial
  peripheral blood eosinophil count: profound decrease
Eosinophils [4]; Phase 3 subject with highest baseline eosinophil count, through month 12
  eosinophil counts in subject with elevated eosinophil counts at baseline: decrease in eosinophil counts
Eosinophils [5]; Phase 2 trial in ALS subjects
  effect on eosinophil counts: dose- and time-dependent decrease in eosinophil counts
Eosinophils [5]; one Phase 2 subject, Part 2 baseline, through month 12
  eosinophil counts in subject with hypereosinophilia at baseline: decrease in eosinophil counts
[6]
  change of all myeloid and lymphoid cell types measured: statistically significant mean reductions from baseline

Reference: patent publication US9763918B2, “Compositions and methods for treating chronic urticaria” (Knopp Biosciences LLC, priority 2013, dated 2017)
